According to PubChem BioAssay (NCI):
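All cell lines were grown in 96-well plates and treated with compound for 48 hours. TGI: total growth inhibition.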

Key:
Experiment in all cases: NCI anticancer screen, dose series, 48 h
[1] = tested on: HCT-116 colon
[2] = tested on: TK-10 renal
[3] = tested on: KM20L2 colon
[4] = tested on: SF-539 CNS
[5] = tested on: UACC-257 melanoma
[6] = tested on: NCI-H23 lung
[7] = tested on: K-562 leukemia
[8] = tested on: HOP-18 NSCLC
[9] = tested on: OVCAR-8 ovarian
[10] = tested on: RPMI-8226 leukemia
[11] = tested on: DLD-1 colon
[12] = tested on: CCRF-CEM leukemia
[13] = tested on: M14 melanoma
[14] = tested on: A549 NSCLC
[15] = tested on: OVCAR-5 ovarian
[16] = tested on: RXF-631 renal
[17] = tested on: SK-MEL-28 melanoma
[18] = tested on: OVCAR-4 ovarian
[19] = tested on: DMS 114 small cell lung
[20] = tested on: SNB-19 CNS
[21] = tested on: ACHN renal
[22] = tested on: SF-295 CNS
[23] = tested on: NCI-H226 lung
[24] = tested on: U251 CNS
[25] = tested on: 786-0 renal
[26] = tested on: M19-MEL melanoma
[27] = tested on: HOP-62 NSCLC
[28] = tested on: SNB-78 CNS
[29] = tested on: UACC-62 melanoma
[30] = tested on: SR leukemia
[31] = tested on: MALME-3M melanoma
[32] = tested on: HCT-15 colon
[33] = tested on: COLO 205 colon
[34] = tested on: HCC-2998 colon
[35] = tested on: HL-60(TB) leukemia
[36] = tested on: EKVX NSCLC
[37] = tested on: KM12 colon
[38] = tested on: CAKI-1 renal
[39] = tested on: LXFL 529 NSCLC
[40] = tested on: SF-268 CNS
[41] = tested on: RXF 393 renal
[42] = tested on: IGROV1 ovarian
[43] = tested on: SK-OV-3 ovarian
[44] = tested on: HT29 colon
[45] = tested on: MOLT-4 leukemia
[46] = tested on: SK-MEL-2 melanoma
[47] = tested on: OVCAR-3 ovarian
[48] = tested on: SN12C renal
[49] = tested on: NCI-H460 lung
[50] = tested on: LOX IMVI melanoma
[51] = tested on: UO-31 renal
[52] = tested on: XF 498 CNS
[53] = tested on: SW-620 colon
[54] = tested on: SNB-75 CNS
[55] = tested on: NCI-H522 lung
[56] = tested on: A498 renal
[57] = tested on: SK-MEL-5 melanoma
[58] = tested on: HOP-92 NSCLC
[59] = tested on: PC-3 prostate
[60] = tested on: BT-549 breast
[61] = tested on: MDA-MB-435
[62] = tested on: HS 578T breast
[63] = tested on: NCI/ADR-RES ovarian
[64] = tested on: DU-145 prostate
[65] = tested on: MDA-N
[66] = tested on: MCF7 breast

Measured: TGI

COc1ccc(/C=C/C(=O)c2sc(NC(=S)NC(=O)c3ccc(Cl)cc3)nc2C)cc1OC
88.1 µM: [12]
> 100 µM: [1] | [2] | [3] | [4] | [5] | [6] | [8] | [9] | [11] | [13] | [14] | [15] | [16] | [17] | [18] | [19] | [20] | [21] | [22] | [23] | [24] | [25] | [26] | [27] | [28] | [30] | [31] | [32] | [33] | [34] | [35] | [36] | [37] | [38] | [39] | [40] | [41] | [42] | [43] | [44] | [45] | [46] | [47] | [48] | [49] | [50] | [51] | [52] | [53]
96.8 µM: [7]
62 µM: [10]
39.5 µM: [29]

N#CNC(=NCCO)NCCO
> 100 µM: [1] | [54] | [3] | [4] | [5] | [8] | [9] | [10] | [11] | [12] | [13] | [55] | [14] | [15] | [16] | [17] | [18] | [19] | [20] | [21] | [22] | [23] | [24] | [26] | [27] | [28] | [29] | [30] | [31] | [32] | [33] | [34] | [35] | [36] | [37] | [38] | [39] | [40] | [42] | [43] | [44] | [45] | [46] | [47] | [48] | [49] | [50] | [56] | [51] | [52] | [53]

CCCCCCCCCCCCCC(=O)NCO
> 100 µM: [1] | [54] | [2] | [3] | [4] | [5] | [6] | [8] | [9] | [57] | [10] | [11] | [12] | [13] | [55] | [14] | [15] | [16] | [58] | [17] | [18] | [19] | [20] | [21] | [22] | [23] | [24] | [25] | [26] | [27] | [28] | [29] | [31] | [32] | [33] | [34] | [35] | [36] | [37] | [39] | [40] | [41] | [42] | [43] | [44] | [46] | [47] | [48] | [49] | [50] | [56] | [51] | [52] | [53]

COc1ccc(/C=C2\CCC(CN3CCOCC3)C2=O)cc1 (stereo not given)
5.26 µM: [13]
43.5 µM: [16]
16.2 µM: [37]
3.86 µM: [53]
5.54 µM: [60]
31.2 µM: [24]
11.3 µM: [42]
21.4 µM: [56]
5.38 µM: [33]
16.4 µM: [40]
> 21.3 µM: [12]
9.64 µM: [2]
3.11 µM: [25]
30.5 µM: [54] | [26]
4.02 µM: [64]
19.5 µM: [15]
5.94 µM: [5]
21.1 µM: [36]
24.8 µM: [11]
33.3 µM: [27]
24.1 µM: [18]
> 100 µM: [62]
6.29 µM: [45]
13 µM: [4]
2.39 µM: [55]
6.42 µM: [31]
11.7 µM: [59] | [21]
3.12 µM: [41]
27 µM: [28]
5.83 µM: [65]
12.3 µM: [48]
3.97 µM: [61]
5.97 µM: [30]
15.3 µM: [51]
11.2 µM: [35]
6.2 µM: [32]
14.4 µM: [6]
13.5 µM: [3]
3.57 µM: [10]
5.73 µM: [44]
18.3 µM: [8]
4.15 µM: [38]
3.04 µM: [39]
9.69 µM: [52]
12.7 µM: [57]
9.36 µM: [47]
26 µM: [20]
24.5 µM: [29]
6.65 µM: [58]
20.8 µM: [14]
6.02 µM: [7]
5.23 µM: [63]
7.35 µM: [9]
7.09 µM: [19]
7.71 µM: [17]
10.9 µM: [34]
30 µM: [43]
41.3 µM: [49]
9.66 µM: [46]
10.1 µM: [50]
32.1 µM: [22]
35.5 µM: [23]
9.58 µM: [66]

C=C=C(Sc1ccccc1)C(C)(C)O
> 100 µM: [1] | [54] | [2] | [3] | [4] | [5] | [6] | [7] | [8] | [9] | [10] | [11] | [12] | [13] | [55] | [15] | [16] | [58] | [17] | [18] | [20] | [21] | [22] | [23] | [24] | [25] | [26] | [29] | [30] | [31] | [32] | [64] | [33] | [34] | [35] | [37] | [39] | [40] | [41] | [42] | [43] | [44] | [45] | [46] | [47] | [48] | [49] | [50] | [56] | [51] | [52] | [53]
